The values below come from a melting point compilation (Tetko et al.; mined from patent text by program, amines drawn as free bases though some values may be those of a salt).

SMILES strings stand for the structures.

Broadly, the melting point is the temperature of the solid-liquid transition. In the case of `Nc1ccccc1NC(=O)CCCCCCNC(=O)c1cn2c3c(cccc13)CCC2`, the melting point was in the range of 144 to 145 °C. Then `COc1ccc2c(c1)nc(C)n2-c1ccccc1`, with 88 to 90 °C; and `COC(=O)C1=C(C)NC(C)=C(C(=O)OC)C1c1ccccc1CO`, with 218 to 220 °C; and `Cc1cc(NC(=O)CN2CCN(c3ncccc3C#N)CC2)ccc1F`, with 111 to 113 °C.

For `CC1(O)CC(=O)OC(c2ccc(-c3ccccc3)cc2)C1` (centres undefined), the melting point lay within 151 to 153 °C. Consider `CCOC(=O)C(=O)Nc1c([N+](=O)[O-])cc(C#N)c2ccccc12`, for which the melting point turned out to be 178 °C.

With `Cc1nc(C(C)(O)c2ccsc2)c(C)o1` (centres undefined), the melting point lay in the range of 83 to 84 °C. In turn, `CC(COc1ccc(CC2SC(=O)NC2=O)cc1)NCC(O)c1cccc(Cl)c1` (centres undefined) came in with a melting point of 100 to 125 °C. The figure for `COc1c(C=O)ccc(OCC(=O)O)c1Cc1ccc2c(Cl)cccc2c1` is 191 to 192 °C. `N#Cc1c(-c2cccc(C(=O)NCCO)c2)cc(-c2ccccc2O)nc1NC(=O)c1cccs1` came in with a melting point of 218 to 219 °C. Then `COc1ccc(OC(Cc2ccc(OCCNC(=O)c3ccc(-c4ccccn4)cc3)cc2)C(=O)O)cc1` (centres undefined), with 67.5 to 70 °C.

`O=C(CC(=O)c1ccccc1O)c1cc(O)c(O)c([N+](=O)[O-])c1` yielded a melting point of 251 to 252 °C. The figure for `CNC(=S)NCCSCc1cncs1` is 86 to 88 °C.

`NCCc1ccc(C(N)=O)s1` had a melting point of 134 to 136 °C. Then `CCC(Cc1ccc(OC)c(OCCc2ccccc2)c1)NC(=O)OC(C)(C)C` (centres undefined), with 88.5 to 89.5 °C.

With `CCOCC(C)Oc1ccc(CSc2cnn(C(C)(C)C)c(=O)c2Cl)cc1` (centres undefined), the melting point is 89.2 to 90.2 °C. The figure for `COCC(OC(N)=O)c1nc2cc(F)c(OC(C)c3c(Cl)ccc(F)c3Cl)cc2s1` (centres undefined) is 200 to 205 °C. The figure for `Cc1noc(NC(=O)N2CCN(c3nc(-c4cccc(C(F)(F)F)c4)cs3)CC2)c1C` is 230 to 231 °C. The compound `O=C(Sc1ccccn1)c1ccc(I)cc1` had a melting point of 127 °C. Then `Nc1ccc2c(c1)S(=O)(=O)N=C2NCCCOc1cccc(CN2CCCCC2)c1`, with 191 to 193 °C; and `CCS(=O)(=O)C(F)(F)C(Cn1cncn1)(OP(=O)(O)O)c1ccc(F)cc1F` (single isomer, unassigned; (+)), with 212 to 214 °C; and `Cn1c(-c2ccc(N3CCOCC3)cc2)cnc1[C@H](Cc1ccccn1)N(C=O)c1cc2cc(Br)ccc2o1`, with 173 to 174 °C. `Cc1nnc(SCc2ccccc2)s1`: the melting point was 60 to 63 °C. Turning to `COc1ccccc1NC(=O)c1cccc(CO)c1`, the melting point worked out at 102 °C. On to `CC(N)=CC(=O)NCCN1CCOCC1`, for which the melting point was in the range of 86 to 93 °C.

For the compound `O=c1ccc(-c2c(-c3ccccc3)nn3ccccc23)nn1C1CCNCC1`, the melting point was in the range of 115 to 117 °C.

The compound `CN(C)/C=C/C(=O)c1ccc2n1Cc1ccccc1N(C(=O)c1ccc(C3CCCCC3)cc1)C2` displayed a melting point of 237 to 240 °C. Then `C[C@H]1CCCC(C)(C)[C@@H]1[C@H](O)c1ccc(C#N)cc1`, with 106 to 108 °C; and `Cc1cc(SC2CC(=O)N(C)C2=O)cc(C(C)(C)C)c1N` (centres undefined), with 92 to 94 °C; and `O=CNCc1ccc2[nH]cc(CCNC(=O)OCc3ccccc3)c2c1`, with 114 to 116 °C. Then `CC(=O)Oc1cc2c(c3ccccc13)Nc1ccccc1S2=O` (centres undefined), with 179 to 181 °C; and `COC(=O)C1C=CCN2C(=O)C(C)(CCOS(C)(=O)=O)C(=O)N12` (centres undefined), with 104 to 105 °C; and `CN1CCC(=O)N(c2ccc(Cl)cc2Cl)C1=O`, with 122 to 125 °C. `CCCOC(=O)c1cc(=O)c2cc(OCc3cccc(OCc4ccc5ccccc5n4)c3)ccc2o1`: the melting point lay within 109 to 110 °C. Then `C=Cn1ccnc1C(O)(c1ccccc1)c1ccccc1C(C)(C)C` (centres undefined), with 152 to 153 °C. Then `COc1c(Cl)cc2c(=O)[nH]c(=O)[nH]c2c1OC`, with 272 to 273 °C. Compound `CC(C)(C)c1ccc(C#N)c(NC(=O)Nc2cccnc2)c1` showed a melting point of 164 to 166 °C. The figure for `O=C(Nc1ccccc1)N1CCN=C1CSc1ccccc1` is 117 to 119 °C; for `CCCCc1ccc(OC(=O)c2ccc(-c3ccc(CC(CC)CCCC)cc3)cc2)c(C#N)c1` (centres undefined) it is 37 °C; for `OCc1cc(OCc2ccccc2)nn1-c1ccccc1` it is 87 to 88 °C. The figure for `CCOC(=O)c1nc(-c2ccc(Cl)cc2Cl)c(-c2ccc(Br)cc2)s1` is 129 to 130 °C.

For `CS(=O)(=O)c1cc(C=O)cc(O)c1O`, the melting point is 169 to 171 °C. Then `O=C1c2ccccc2C(=O)N1CC(=C(F)F)c1ccccc1`, with 102 to 103 °C; and `O=C(CC1CCCCCC1)Nc1cn(CCO)c2cccc(Cl)c12`, with 79 to 83 °C.

The compound `C[C@H](O)[C@H]1C(=O)N2C(C(=O)OCc3ccc([N+](=O)[O-])cc3)=C(SCCNC(=O)COc3ccccc3)C[C@H]12` yielded a melting point of 115 to 118 °C. The compound `c1ccc2c(-c3nc(NC4CCCCC4)c4ccccc4n3)nccc2c1` had a melting point of 275 to 277 °C.

Consider `O=C(O)c1ccc(OCCc2c(CCNS(=O)(=O)Cc3ccc(Cl)c(Cl)c3)n(C(c3ccccc3)c3ccccc3)c3ccc(Cl)cc23)cc1F`, for which the melting point lay within 117 to 119 °C. `Brc1ccc(CC2=NCCN2)c2ccccc12` came in with a melting point of 133 to 135 °C. Then `CC(=S)NCC1CN(c2ccc(-c3csc(Cn4cncn4)n3)c(F)c2)C(=O)O1` (centres undefined), with 82 to 84 °C. Consider `Cc1cc(Cl)cc2c1OC(C(F)(F)F)C(C(=O)O)=C2` (centres undefined), for which the melting point was 232 to 233 °C.

As for `CC#CCOc1ccc(S(=O)(=O)C(C(=O)NO)c2ccc(OC)cc2)cc1` (centres undefined), the melting point was 190 °C.

With `COc1cc2ncnc(Nc3cccc(Cl)c3F)c2cc1O`, the melting point was 265 to 268 °C.

`CCCCCCCC(=O)Oc1ccc2nc(S(N)(=O)=O)sc2c1` had a melting point of 114 °C. The figure for `CC(=O)NC[C@H]1CN(c2ccc(C(=O)c3cnc4nc(C)cc(C)n34)cc2)C(=O)O1` is 253 to 254 °C; for `Cc1c(-c2ccc(OS(=O)(=O)NN(C)C)cc2)[nH]c2nccnc12` it is 188 °C.

`CO/N=C(/CNC(=O)c1cnc(OCC(F)(F)F)c(-c2ccc(Cl)c(Cl)c2)c1)C(F)(F)F` showed a melting point of 124 to 126 °C. Compound `COc1c(-c2cc3c(s2)CCCC3N=[N+]=[N-])ccc2c(=O)c(C(=O)O)cn(C3CC3)c12` (centres undefined) had a melting point of 134 to 136 °C. Then `C=CCn1c(=O)c(OC)nn(-c2cccc(NC(C)=O)c2)c1=O`, with 72 to 73 °C; and `CNC(=O)Nc1c2c(nc3sccc13)CCCC2`, with 253 to 255 °C; and `CCn1c(=O)c(-c2c(Cl)cccc2Cl)cc2cnc(Nc3ccccc3)nc21`, with 223 to 225 °C.

Compound `NC(=O)NC1CCCc2sc(Br)cc21` (centres undefined) returned a melting point of 206 to 210 °C. Then `COc1cc(C(=O)O)ccc1OCCCO`, with 162 °C; and `CC(C)c1ccc(-n2nnc(-c3ccc(OC(=O)C(C)(C)C)cc3)n2)cc1`, with 122 to 125 °C; and `CN=C(NC#N)NCCSCc1[nH]cnc1Br`, with 144 to 146 °C.

For `Cn1c2cc(C#N)ccc2c2nc3ccccc3nc21`, the melting point lay within 284 to 287 °C. The figure for `O=C(Nc1nccs1)C(CC1CCCC1)c1ccc(C(F)(F)F)c(F)c1` (centres undefined) is 194 to 195 °C.

In the case of `OC(c1ccc2c(c1)CCN2)(C(F)(F)F)C(F)(F)F`, the melting point lay within 161 to 162 °C. Then `CCC12CCC3C(=CCC4(C)C(O)CCC34)C1(C)CCC(O)C2` (centres undefined), with 165 °C; and `COc1ccc(C(=O)c2c(Cc3ccccc3)oc3ccccc23)cc1`, with 84 to 85 °C.

For the compound `Cc1c(SCCCCSCc2ccncc2)ccnc1CNc1cnc2ccccc2c1`, the melting point fell in the range of 110 to 113 °C.

Compound `Cc1c(F)c(F)c(C)c(C(=O)O)c1F` yielded a melting point of 118 to 119 °C. Then `c1ccc(Cc2ccc3c(c2)nc2n3CCCS2)cc1`, with 145 to 147 °C; and `COc1ccc(C(=O)c2cccc(C(=O)O)c2)cc1`, with 183 to 186 °C.

Regarding `Nc1nc(NCCO)nc(N2CCOCC2)n1`, the melting point is 159 to 161 °C.

Regarding `COC(=O)C(Oc1ccc(OCc2ccccc2)cc1)c1ccc(Oc2ccc(Cl)cc2)cc1` (centres undefined), the melting point lay in the range of 88 to 90 °C. For the compound `CC(C)NCCCCOc1ccc(O)cc1`, the melting point is 91 to 93 °C. The figure for `Cn1ccnc1S(=O)CC(=O)C12CC3CC(CC(C3)C1)C2` (centres undefined) is 86 to 89 °C; for `Cc1nc(NC(=O)Nc2ccc(N3CCN(C(=O)Nc4ccc(OCCO)cc4C(F)(F)F)CC3)cc2)sc1C` it is 166 to 167 °C; for `CC(C)CC(=O)Nc1ccc2oc3c(c2c1)CCC3` it is 162 to 163 °C. As to `CSc1ccnc(-c2nc(=O)c3ccccc3s2)c1`, the melting point was in the range of 213 to 214 °C. Then `CN1CCc2c(c3ccccc3n2CCc2nc(-c3ccncc3)cs2)C1`, with 158 to 160 °C; and `O=c1oc2cc(O)cc(O)c2c(O)c1C1c2ccccc2Oc2c1c(=O)oc1cc(O)cc(O)c21` (centres undefined), with above 300 °C.

Take `CC(=O)Nc1ccc(O)cc1F`: the melting point came to 124 °C. For the compound `O=[N+]([O-])c1cc(C(F)(F)F)ccc1NCCCN1CCN(C(c2ccccc2)c2ccccc2)CC1`, the melting point was 114 °C.

Turning to `CC(=O)n1ncc2c(OCC3CO3)cc(C)cc21` (centres undefined), the melting point was in the range of 105 to 107 °C. `COc1ccc(-c2nc3cc(F)ccc3s2)cc1OC(=O)c1ccc([N+](=O)[O-])cc1` registered a melting point of 198 °C. The figure for `NCC(CN)(CN)CN` is 70 °C; for `CC(=O)ON=C(N)c1cccc(C(=O)NCCCNC(=O)[C@@H]2CCCN2S(=O)(=O)c2ccc(Cl)c(COc3cccc4c(C)cc(C)nc34)c2Cl)c1` it is 100 to 104 °C. Then `O=C(NCCc1c[nH]c2ccc([N+](=O)[O-])cc12)C(F)(F)F`, with 200 to 201 °C.
